Measurements published in patent publication US7943606B2, “Compositions and methods to control abnormal cell growth” (CanCure Laboratories, LLC, priority 2005, dated 2011).
Several values for one entry are separate records, joined by “and”; a condition that tells them apart may be missing. Identical values can stand only once. Counter-ions that a name gives are not always drawn.

Assays:
MEL-24 cells = assay: Viability of MEL-24 melanoma cells (MTT assay); format: cell-based; details: Homo sapiens; for inhibition at 100 µM: 72 hours, read-out: Decrease in cell number (maximal decrease = 100%), MEL-24
Description: (§1) To quantify cell death, around the time when significant and characteristic morphological changes took place, cells were pulse-labeled for 10 minutes with [^3H]thymidine to measure DNA activity as described elsewhere [Tomono, M. and Kiss, Z. (1995), “Ethanol enhances the stimulatory effects of insulin and insulin-like growth factor-I on DNA synthesis in NIH 3T3 fibroblasts,” Biochem. Biophys. Res. Commun. 208, 63-67]. Also, cells were collected as suspensions using trypsin, an established method in cell biology, followed by re-plating of cells in fresh tissue culture medium. If no viable cells were obtained after one week in culture, it meant that the cells at the time of re-plating were dead. Survival values obtained with untreated cells were considered 100%. For the determination of relative number of viable cells after treatments, in most cases the MTT assay was used. This calorimetric assay is based on the ability of living cells, but not dead cells, to reduce 3-(4,5-dimethyl thiazol-2-yl)-2,5-diphenyltetrazolium bromide [Carmichael, J, De Graff, W. G., Gazdar, A. F., Minna, J. D. and Mitchell, J. B. (1987), “Evaluation of tetrazolium-based semi-automated calorimetric assay: Assessment of chemosensitivity testing,” Cancer Res. 47, 936-942]. For this assay, cells were plated in 96-well plates, and the MTT assay was performed both in untreated and treated cell cultures. The MTT assay also was performed at the start of treatments to allow assessment of proliferation rates in the control and treated cell cultures.
(§2) NIH3T3, T47D, A-431, HT-29, and MEL-28 cells were cultured as indicated earlier. CaOV-3 human ovarian cancer cells were cultured in DMEM containing 10% FBS. ZR-75-1 human estrogen receptor-positive breast cancer cells were maintained in RPMI 1640 medium supplemented with 10% FBS. HTB-157 human fetal fibroblasts, MEL-24 human malignant melanoma cells, Hep G2 human hepatoblastoma cells, and CaCO-2 human colon adenocarcinoma cells were maintained in Eagles's MEM containing 10% FBS. MB-231 human estrogen receptor-negative breast cancer cells were maintained in Leibovitz's L-15 medium supplemented with 10% FBS. Cells were seeded into 96-well plates and treated at ˜70-90% confluency. Two hours prior to treatments the medium was changed for fresh 10% serum medium, and then the cells were incubated for 10 days in the absence (□) or presence of 50 μM CCDTHT ? or 100 μM CCDTHT (▪). The medium was changed and the cells were re-treated on days 3 and 6. The MTT assay was used to determine cell viability on day 10. The data, shown in FIG. 6, are the mean±std. dev. of 8 incubations in one experiment. (The experiment was repeated twice with similar results).
(§3) NIH 3T3, MEL-28, MEL-24, CaOV-3, ZR-75-1, and T47D cells were cultured as described above. The OVCAR human ovarian cancer cells were cultured in DMEM containing 10% FBS. Cells were seeded into 96-well plates and used at ˜60-80% confluency. Two hours before treatments the medium was changed for fresh 10% serum medium, and then the cells were incubated for 72 hours in the absence or presence of 100 μM of each of CC compounds as listed in TABLE 3. The inhibitory effects of CC compounds on cell proliferation are expressed as percent decrease compared to untreated cell cultures (the greater the number, the greater the inhibitory effect of the CC compound). […] Also, for the treatment of ovarian cancer and breast cancer, CCDTHT seems to be the best choice (although in this experiment CCompounds21-26 were not tested).

ZR-75-1 cells = assay: Viability of ZR-75-1 breast cancer cells (MTT assay); format: cell-based, human; details: for inhibition at 100 µM: Homo sapiens, ZR-75-1, 72 hours, read-out: Decrease in cell number (maximal decrease = 100%), ZR-75-1
Description: as §1, §2, §3

HT-29 cells = assay: Viability of HT-29 colon adenocarcinoma cells (MTT assay); format: cell-based, human; details: for inhibition at 100 µM: HT-29, similar comparative study (100 μM, 72 hours), read-out: inhibition of proliferation, HT-29
Description: as §1
(§4) The NIH 3T3 (normal) mouse fibroblast, A431 human epidermoid adenocarcinoma, and MCF-7 human breast cancer cells were cultured in DMEM medium containing 10% FBS. The MEL-28 human melanoma cells were cultured in MEM medium containing 10% FBS. The HT-29 human colon adenocarcinoma cells were cultured in McCoy's 5a medium containing 10% FBS. The A549 human lung carcinoma cells were maintained in Ham's F12K medium containing 10% FBS. Cells were seeded into 96-well plates and treated at ˜70-90% confluency. Two hours before treatments the medium was changed for fresh 10% serum medium, and then the cells were incubated for 72 hours in the presence of 0-200 μM of CCompound1 (●) or CCompound3 (CCDTHT) (▴), as indicated. The MTT assay was used to determine cell viability after treatments. The values, shown in FIGS. 5A-5F and expressed as percent decrease in viability compared to the untreated control cells, are the mean±std. dev. of 8 incubations in one experiment. Similar results were obtained in another experiment.
as §2, with “The MTT assay was used to determine cell viability on day 10. The data, shown in FIG. 6, are the mean±std. dev. of 8 incubations in one experiment. (The experiment was repeated twice with similar results).” left out

A-431 cells = assay: Viability of A-431 epidermoid adenocarcinoma cells (MTT assay); format: cell-based, human; details: for inhibition at 100 µM: Homo sapiens, A-431, similar comparative study (100 μM, 72 hours), read-out: inhibition of proliferation, A-431
Description: as §1, §4, §2
NIH 3T3, MEL-28, MEL-24, CaOV-3, ZR-75-1, and T47D cells were cultured as described above. The OVCAR human ovarian cancer cells were cultured in DMEM containing 10% FBS. Cells were seeded into 96-well plates and used at ˜60-80% confluency. […]

PC-3 cells = assay: Proliferation of PC-3 prostate cancer cells; format: cell-based; details: Homo sapiens, similar comparative study (100 μM, 72 hours)
A549 cells = assay: Viability of A549 lung carcinoma cells (MTT assay); format: cell-based, human
Description: To quantify cell death, around the time when significant and characteristic morphological changes took place, cells were pulse-labeled for 10 minutes with [^3H]thymidine to measure DNA activity as described elsewhere [Tomono, M. and Kiss, Z. (1995), “Ethanol enhances the stimulatory effects of insulin and insulin-like growth factor-I on DNA synthesis in NIH 3T3 fibroblasts,” Biochem. Biophys. Res. Commun. 208, 63-67]. Also, cells were collected as suspensions using trypsin, an established method in cell biology, followed by re-plating of cells in fresh tissue culture medium. If no viable cells were obtained after one week in culture, it meant that the cells at the time of re-plating were dead. […]
The NIH 3T3 (normal) mouse fibroblast, A431 human epidermoid adenocarcinoma, and MCF-7 human breast cancer cells were cultured in DMEM medium containing 10% FBS. […] The values, shown in FIGS. 5A-5F and expressed as percent decrease in viability compared to the untreated control cells, are the mean±std. dev. of 8 incubations in one experiment. […]
(§5) NIH 3T3, MEL-28, MEL-24, CaOV-3, ZR-75-1, and T47D cells were cultured as described above. […] The inhibitory effects of CC compounds on cell proliferation are expressed as percent decrease compared to untreated cell cultures (the greater the number, the greater the inhibitory effect of the CC compound). […]

MB-231 cells = assay: Viability of MB-231 breast cancer cells (MTT assay); format: cell-based, human
Description: To quantify cell death, around the time when significant and characteristic morphological changes took place, cells were pulse-labeled for 10 minutes with [^3H]thymidine to measure DNA activity as described elsewhere [Tomono, M. and Kiss, Z. (1995), “Ethanol enhances the stimulatory effects of insulin and insulin-like growth factor-I on DNA synthesis in NIH 3T3 fibroblasts,” Biochem. Biophys. Res. Commun. 208, 63-67]. Also, cells were collected as suspensions using trypsin, an established method in cell biology, followed by re-plating of cells in fresh tissue culture medium. If no viable cells were obtained after one week in culture, it meant that the cells at the time of re-plating were dead. Survival values obtained with untreated cells were considered 100%. For the determination of relative number of viable cells after treatments, in most cases the MTT assay was used. […]
as §5

HaCaT keratinocytes = assay: Viability of HaCaT keratinocytes; format: cell-based
Description: as §1
HaCaT keratinocytes, frequently used immortalized model cells for studying psoriatic keratinocytes, and HTB-157 human fetus lung fibroblasts were cultured in 10% FBS-containing Dulbecco's modified Eagle's medium (DMEM). Cells were distributed in 96-well plates; when cells were 50-60% confluent, the medium was changed for fresh 10% serum-containing medium, followed by incubations for 48 hours in the absence (□) or presence of 50 μM CCDTHT ? , or 100 μM CCDTHT (▪). The MTT assay was used to determine cell viability. […]

SMILES | inhibition at 100 µM (MEL-24 cells) | inhibition at 100 µM (ZR-75-1 cells) | inhibition at 100 µM (A-431 cells) | also measured
CC[N+](C)(CC)CCCOCc1ccc2sc3ccccc3c(=O)c2c1 [CCcompound10, N,N-Diethyl-N-methyl-3-[(9-oxo-9H-thioxanthen-2-yl)methoxy]-propane-1-aminium iodide] | 15% | 65% |  | 
C[N+](C)(CCCO)Cc1ccc2sc3ccccc3c(=O)c2c1 [CCcompound15, 3-Hydroxy-N,N-dimethyl-N-[(9-oxo-9H-thioxanthen-2-yl)methyl]propane-1-aminium bromide] | 0% | 41% |  | 
CC[N+](CC)(CCO)Cc1ccc2sc3ccccc3c(=O)c2c1 [CCcompound14, 2-Hydroxy-N,N-Diethyl-N-[(9-oxo-9H-thioxanthen-2-yl)methyl]-ethanaminium bromide] | 21% | 53% |  | inhibition at 100 µM (HT-29 cells; Homo sapiens): 63 to 71%
C[N+](C)(CCO)Cc1ccc2sc3ccccc3c(=O)c2c1 [CCcompound13, 2-Hydroxy-N,N-dimethyl-N-[(9-oxo-9H-thioxanthen-2-yl)methyl]-ethanaminium bromide] | 12% | 48% |  | 
CC[NH+](CC)CCCOCc1ccc2sc3ccccc3c(=O)c2c1 [CCcompound12, 2-{[3-(Diethylamino)propoxy]meth-yl}-9H-thioxanthen-9-one hydrochloride] | 73% | 17% | 68 to 74% | 
CC[N+](CC)(CCCO)Cc1ccc2sc3ccccc3c(=O)c2c1 [CCcompound16, 3-Hydroxy-N,N-diethyl-N-[(9-oxo-9H-thioxanthen-2-yl)methyl]-propane-1-aminium bromide] | 0% | 39% |  | 
CC[N+](CC)(CC)CCCOCc1ccc2sc3ccccc3c(=O)c2c1 [CCcompound9, N,N,N-Triethyl-3-[(9-oxo-9H-thioxanthen-2-yl)methoxy]-propane-1-aminium iodide] | 4% | 70% | 68 to 74% | 
CC[N+](C)(C)CCCOCc1ccc2sc3ccccc3c(=O)c2c1 [CCcompound11, N,N-Dimethyl-N-ethyl-3-[(9-oxo-9H-thioxanthen-2-yl)methoxy]-propane-1-aminium iodide] | 20% | 75% |  | inhibition at 100 µM (PC-3 cells): 54 to 55%; inhibition at 100 µM (A549 cells; Homo sapiens, A549, similar comparative study (100 μM, 72 hours), read-out: inhibition of proliferation, A549): 68%; inhibition at 100 µM (MB-231 cells; Homo sapiens, similar comparative study (100 μM, 72 hours), read-out: inhibition of proliferation, MB-231): 75%; inhibition at 100 µM (HT-29 cells; Homo sapiens): 63 to 71%
CC[N+](C)(CC)CCOCc1ccc2sc3ccccc3c(=O)c2c1.[I-] [CCDTHT, N,N-diethyl-N-methyl-2-[(9-oxo-9H-thioxanthen-2-yl)methoxy]-ethanaminium iodide] | 15% | 74% | 68 to 74% | cytotoxicity at 100 µM (MEL-24 cells; 240 h, 10 days, MTT, read-out: reduction in the number of viable cells, MEL-24): ≤ 50%; sensitivity to the inhibitory actions, ZR-75-1 (ZR-75-1 cells; 50 and 100 μM, 10 days, MTT): very sensitive; decrease in viability, A-431 (A-431 cells; 0-200 μM, 72 hours, MTT): similarly large effects; sensitivity to the inhibitory actions, A-431 (A-431 cells; 50 and 100 μM, 10 days, MTT): very sensitive; inhibition at 100 µM (PC-3 cells): 54 to 55%; reduction of cell numbers, A-549, CCDTHT versus CCompound1 (A549 cells; 0-200 μM, 72 hours, MTT): clearly more effective than CCompound1; sensitivity to the inhibitory actions, MB-231 (MB-231 cells; 50 and 100 μM, 10 days, MTT): moderately sensitive; reduction of cell numbers, HT-29, CCDTHT versus CCompound1 (HT-29 cells; 0-200 μM, 72 hours, MTT): clearly more effective than CCompound1; decrease in the number of viable cells versus 0.5 mM HC-3, HT-29 (HT-29 cells; 100 μM, 72 hours, MTT): much greater decreases in the number of viable cells compared to 0.5 mM HC-3; cytotoxicity at 100 µM (HT-29 cells; Homo sapiens, HT-29, 240 h, 100 μM, 10 days, MTT, read-out: reduction in the number of viable cells, HT-29): ≤ 50%; reduction in the number of viable HaCaT cells (HaCaT keratinocytes; 50-100 μM, 48 hours, MTT): 85-98% and 85-100%; inhibition at 100 µM (HaCaT keratinocytes; Homo sapiens, HaCaT, 48 h, read-out: inhibition of DNA synthesis, HaCaT): ~95%; viable cells after re-plating of treated HaCaT cells (HaCaT keratinocytes; re-plated after treatment, fresh medium for 1 week): no viable cells were found
